Data from patent publication US20260097091A1, “ADMINISTRATION OF GLUTATHIONE TRISULFIDE TO AMELIORATE PERIPHERAL NEUROPATHY” (The General Hospital Corporation, priority 2022, published 2026).

Key:
primary cortical neurons = test: axonal degeneration in primary cortical neurons; format: cell-based, mice; conditions: 10 μM of GSSSG
[1] = tissue distribution of orally administered ^34S-labeled GSSSG by LC-MS/MS; format: in vivo, mice; conditions: 2 hours after oral ^34S-labelled GSSSG 50 mg/kg; mice
Experimental: To determine the tissue distribution of orally-administered GSSSG, ^34S-labelled GSSSG was administered by gavage to each of four mice. ^34S-labelled GSSSG was synthesized and provided by Kyowa Hakko Bio CO., LTD. Two hours after a single dose of ^34S-GSSSG, DRG, lumber spinal cord, brain, liver, and plasma were obtained and snap frozen for later analysis.
We examined whether administrated GSSSG via oral gavage reaches peripheral nervous system using liquid chromatography with tandem mass spectrometry (LC-MS/MS). Fifty mg/kg of ^34S-labeled GSSSG (in which the middle sulfur, that is a sulfane sulfur, was replaced to ^34S; G-^32S-^34S-^32S-G) was orally administered to mice. Two hours after administration, plasma and tissue from liver, brain, lumbar spinal cord, and lumbar DRG (L1 to L6) were collected and immediately frozen at −80° C. Tissues were homogenized with 5 mM of β-(4-hydroxyphenyl)ethyl iodoacetamide (HPE-IAM) (Santa Cruz, Cat No. SC-473766) and incubated for 20 minutes at 37° C. to promote HPE-IAM reaction that stabilizes persulfide residues. Proteins were removed by centrifugation at 15,000 g for 10 minutes at 4° C., and total protein concentration was measured by BCA assay. The supernatant was diluted by 0.1% formic acid for LC-MS/MS analysis. The amount of ^34S-labeled GSSSG was quantified in selective reaction monitoring (SRM) with precursor ion (647.14 m/z), product ion (389.1 m/z), and HCD (21 v) and normalized by protein concentration. The ratio of ^34S-labeled reactive sulfur species to endogenous (^32S) reactive sulfur species (GSSH, CysSSH, and CysSSSCys) were also calculated from their peak area measured by Dionex UltiMate 3000 RS UPLC-Orbitrap Exploris 480 mass spectrometer (Thermo Scientific Scientific, Waltham, MA, USA). In brief, samples were subjected to the UPLC system with a Hypersil Gold C-18 (100×2.1 mm, 3.0 μm, Thermo Fisher Scientific) column and they were eluted by using a linear methanol gradient of the mobile phase (0-90%, 15 minutes) in the presence of 0.1% formic acid at a flow rate of 0.2 ml/minutes at 40 degrees. The raw data were obtained by Compound Discoverer software 3.3. Molecular weight of reactive sulfur species combined with HPE-IAM were reported in previous studies.

mouse model of PIPN = test: von Frey test of mechanical allodynia in mouse model of paclitaxel-induced peripheral neuropathy; format: in vivo, mice (C57BL/6J)
Description: All animal protocols were approved by the Massachusetts General Hospital Institutional Animal Care and Use Committee. Animals were cared for in accordance with the guidelines established by the NIH and the International Association for the Study of Pain [16]. Male C57BL/6J mice (6-7 weeks old) were purchased from the Jackson Laboratory (Bar Harbor, ME, USA). The mice were housed in a 12-hour shift light-control environment from 7 am to […] with ad libitum access to food and water in our animal facility until the time of experiments.
Paclitaxel (Sigma-Aldrich) was dissolved with ethanol and cremophor (1:1) and diluted with normal saline (1:4). Peripheral neuropathy was induced in mice by intraperitoneal (i.p.) administration of 4 mg/kg paclitaxel every other day for a total of 4 injections (cumulative dose of 16 mg/kg), according to a previously described protocol. A stable, crystallized form of GSSSG was produced and provided by Kyowa Hakko Bio CO., LTD. GSSSG was pulverized and mixed in 0.5% methylcellulose. […] The dose of GSSSG was determined based on pilot studies. […]
Mechanical withdrawal thresholds were measured by the manual von Frey filament test to assess mechanical allodynia. […] The 50% threshold of a paw withdrawal response was calculated by the Up-down Reader based on the up and down method. […]

[2] = test system: MDA-MB-231 human breast cancer cells; test: MDA-MB-231 cell viability by LDH Cytotoxicity Detection assay; format: cell-based; conditions: 24 hours incubation
Experimental: To examine whether co-administration of GSSSG affects anti-tumor effects of paclitaxel, we conducted experiments using MDA-MB-231, a human breast cancer cell line (HTB-26, ATCC). Cells were cultured in the medium of 90% RPMI1640 (Corning, Cat No. 10-040-CV), 10% FBS, and 1% penicillin/streptomycin. After being seeded into a 96-well plate at the density of 20,000/well and cultured overnight, they were exposed to different concentrations of paclitaxel (0.125 μM, 0.25 μM, 0.5 μM, 1 μM, and 2 μM) and incubated for 24 hours. Cell viability was evaluated by LDH Cytotoxicity Detection Kit (Roche, Cat No. 11644793001). Briefly, a plate was centrifuged at 250×g for 10 minutes. Cells were washed with PBS and incubated with 100 μl of 1% Triton X-100 at 37° C. for 30 minutes. After mixing with assay enzyme for 30 minutes at 25° C., absorbance was measured at wavelength 492 nm to determine cell viability. Inhibitory effects of paclitaxel were calculated by half-maximal inhibitory concentration (IC50). We utilized the IC50 of paclitaxel obtained with LDH assay to examine the anti-tumor effect of paclitaxel and co-administration of GSSSG using the trypan blue exclusion assay. […] MDA-MB-231 cells were seeded 5.6×10,000/well in a 6-well plate and incubated overnight. […] After being stripped by 0.25% trypsin, live cells were counted under 0.04% trypan blue. Five wells were evaluated per group.

SMILES | axonal degeneration in primary cortical neurons (primary cortical neurons) | plasma level of GSSSG [1] | mechanical allodynia (von Frey test) (mouse model of PIPN; GSSSG 50 mg/kg/day oral for 28 days in paclitaxel-treated mice, vs paclitaxel alone) | IC50 [2] | paw withdrawal threshold (von Frey test) (mouse model of PIPN; paclitaxel 4 mg/kg i.p. every other day, 4 injections, week 1 through week 4, vs control mice)
N[C@@H](CCC(=O)N[C@@H](CSSSC[C@H](NC(=O)CC[C@H](N)C(=O)O)C(=O)NCC(=O)O)C(=O)NCC(=O)O)C(=O)O [GSSSG, glutathione trisulfide] | prevented axonal degeneration | 58 nM | mitigated mechanical allodynia over the experimental period |  | 
CC(=O)O[C@H]1C(=O)[C@@]2(C)[C@H]([C@H](OC(=O)c3ccccc3)[C@]3(O)C[C@H](OC(=O)[C@H](O)[C@@H](NC(=O)c4ccccc4)c4ccccc4)C(C)=C1C3(C)C)[C@]1(OC(C)=O)CO[C@@H]1C[C@@H]2O [paclitaxel, Paclitaxel, reference compound] |  |  |  | 1660 nM | significantly lower paw withdrawal threshold than control mice
